What was measured:
BRG-1 = BRG-1 (Homo sapiens, UniProt P51532); assay: ATPase catalytic activity assay (ADP-Glo), BRG-1; settings: for Emax: 1 h, read-out: BRG1 Max % Inhibition, ADP-Glo, 30 nM BRG-1, 400 μM ATP
BRM = BRM (Homo sapiens, UniProt P51531); assay: ATPase catalytic activity assay (ADP-Glo), BRM; settings: 30 nM BRM, 400 μM ATP; for IC50: BRM ATPase: IC50 (uM)
Sequence of BRM (P51531 whole entry): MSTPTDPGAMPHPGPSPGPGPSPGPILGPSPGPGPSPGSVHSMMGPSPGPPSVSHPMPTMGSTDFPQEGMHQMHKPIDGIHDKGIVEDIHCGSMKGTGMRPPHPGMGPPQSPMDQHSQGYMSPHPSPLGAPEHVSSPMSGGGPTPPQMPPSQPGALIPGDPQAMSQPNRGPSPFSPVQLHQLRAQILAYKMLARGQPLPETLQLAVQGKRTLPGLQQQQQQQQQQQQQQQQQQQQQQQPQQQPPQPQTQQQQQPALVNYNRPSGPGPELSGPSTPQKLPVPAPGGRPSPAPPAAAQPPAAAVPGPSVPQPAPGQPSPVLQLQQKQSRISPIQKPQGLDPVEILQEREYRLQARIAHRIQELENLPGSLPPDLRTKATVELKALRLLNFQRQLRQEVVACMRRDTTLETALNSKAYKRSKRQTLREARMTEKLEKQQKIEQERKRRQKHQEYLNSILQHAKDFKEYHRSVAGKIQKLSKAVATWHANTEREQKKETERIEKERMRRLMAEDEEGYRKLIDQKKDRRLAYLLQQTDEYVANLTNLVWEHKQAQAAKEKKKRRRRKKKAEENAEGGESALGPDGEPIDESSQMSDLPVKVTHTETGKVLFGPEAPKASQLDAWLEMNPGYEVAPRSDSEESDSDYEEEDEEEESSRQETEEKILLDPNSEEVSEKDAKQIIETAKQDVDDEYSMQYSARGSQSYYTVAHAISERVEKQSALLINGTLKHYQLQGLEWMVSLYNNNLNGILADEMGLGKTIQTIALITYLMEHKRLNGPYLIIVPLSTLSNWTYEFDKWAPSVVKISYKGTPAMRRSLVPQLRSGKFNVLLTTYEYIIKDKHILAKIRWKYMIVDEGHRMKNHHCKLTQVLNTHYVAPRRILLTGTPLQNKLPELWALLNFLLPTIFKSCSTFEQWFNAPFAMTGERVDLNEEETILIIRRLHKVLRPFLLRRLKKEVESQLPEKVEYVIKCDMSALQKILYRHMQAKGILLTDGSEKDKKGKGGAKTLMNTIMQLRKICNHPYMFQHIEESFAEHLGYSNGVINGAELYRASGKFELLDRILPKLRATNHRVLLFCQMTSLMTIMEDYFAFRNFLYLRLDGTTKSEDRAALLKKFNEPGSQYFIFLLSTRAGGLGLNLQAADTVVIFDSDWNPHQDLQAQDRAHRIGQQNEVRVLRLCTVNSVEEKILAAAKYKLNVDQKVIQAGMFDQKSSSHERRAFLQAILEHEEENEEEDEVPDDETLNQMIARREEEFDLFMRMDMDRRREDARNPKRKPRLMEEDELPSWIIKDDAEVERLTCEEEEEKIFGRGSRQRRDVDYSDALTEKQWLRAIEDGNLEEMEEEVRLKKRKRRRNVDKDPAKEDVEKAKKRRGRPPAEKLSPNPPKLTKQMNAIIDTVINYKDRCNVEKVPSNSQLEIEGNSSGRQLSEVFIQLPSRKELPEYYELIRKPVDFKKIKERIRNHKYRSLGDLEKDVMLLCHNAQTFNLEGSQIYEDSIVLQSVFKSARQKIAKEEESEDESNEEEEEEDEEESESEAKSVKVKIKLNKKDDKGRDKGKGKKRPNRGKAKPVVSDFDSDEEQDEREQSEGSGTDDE

Sequence of BRG-1 (P51532 whole entry): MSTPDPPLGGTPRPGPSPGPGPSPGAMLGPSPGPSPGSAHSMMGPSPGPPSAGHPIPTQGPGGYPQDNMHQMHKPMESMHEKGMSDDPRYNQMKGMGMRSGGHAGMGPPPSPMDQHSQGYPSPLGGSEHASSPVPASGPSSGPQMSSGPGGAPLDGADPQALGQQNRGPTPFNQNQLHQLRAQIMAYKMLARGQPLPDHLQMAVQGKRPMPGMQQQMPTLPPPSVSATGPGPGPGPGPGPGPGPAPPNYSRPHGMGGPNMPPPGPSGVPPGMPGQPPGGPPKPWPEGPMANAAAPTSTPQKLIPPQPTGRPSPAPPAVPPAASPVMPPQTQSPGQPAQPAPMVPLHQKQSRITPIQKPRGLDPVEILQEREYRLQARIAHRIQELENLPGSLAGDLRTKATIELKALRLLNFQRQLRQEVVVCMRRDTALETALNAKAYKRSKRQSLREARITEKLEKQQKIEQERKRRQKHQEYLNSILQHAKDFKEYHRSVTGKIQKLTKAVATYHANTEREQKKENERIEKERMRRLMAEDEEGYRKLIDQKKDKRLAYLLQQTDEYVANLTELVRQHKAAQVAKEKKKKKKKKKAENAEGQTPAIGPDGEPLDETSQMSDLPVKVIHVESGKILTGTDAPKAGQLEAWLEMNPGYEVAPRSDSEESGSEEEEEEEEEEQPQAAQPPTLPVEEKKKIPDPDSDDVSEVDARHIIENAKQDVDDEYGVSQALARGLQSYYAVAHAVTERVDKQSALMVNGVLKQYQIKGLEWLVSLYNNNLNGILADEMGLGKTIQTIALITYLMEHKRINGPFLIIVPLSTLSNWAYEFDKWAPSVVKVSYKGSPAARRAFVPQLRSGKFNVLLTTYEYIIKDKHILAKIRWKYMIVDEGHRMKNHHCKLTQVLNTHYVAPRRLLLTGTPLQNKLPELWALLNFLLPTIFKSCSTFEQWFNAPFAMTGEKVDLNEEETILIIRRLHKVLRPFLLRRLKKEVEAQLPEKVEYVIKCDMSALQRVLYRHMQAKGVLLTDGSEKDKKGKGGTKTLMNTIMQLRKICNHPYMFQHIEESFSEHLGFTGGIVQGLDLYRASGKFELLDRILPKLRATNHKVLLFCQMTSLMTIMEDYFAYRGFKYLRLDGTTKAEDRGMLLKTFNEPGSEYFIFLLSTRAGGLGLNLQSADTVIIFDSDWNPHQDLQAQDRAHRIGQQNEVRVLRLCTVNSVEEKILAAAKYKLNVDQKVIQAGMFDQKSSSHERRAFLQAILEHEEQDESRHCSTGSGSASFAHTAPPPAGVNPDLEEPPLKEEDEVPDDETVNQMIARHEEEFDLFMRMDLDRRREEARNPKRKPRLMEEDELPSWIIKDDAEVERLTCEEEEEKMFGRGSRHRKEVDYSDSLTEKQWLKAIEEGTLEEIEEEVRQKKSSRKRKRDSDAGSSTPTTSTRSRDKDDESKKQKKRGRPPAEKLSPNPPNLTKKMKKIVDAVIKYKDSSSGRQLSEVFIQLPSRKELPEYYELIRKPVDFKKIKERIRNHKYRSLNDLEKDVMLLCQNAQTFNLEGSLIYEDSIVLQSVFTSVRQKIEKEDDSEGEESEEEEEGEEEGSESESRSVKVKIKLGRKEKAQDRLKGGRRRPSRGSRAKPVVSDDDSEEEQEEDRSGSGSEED

Compound | IC50 (BRG-1) | Emax (BRG-1) | BRM Max % Inhibition (BRM) | IC50 (BRM)
C[C@@]1(C#N)COCc2ccc(C(=O)NCc3cc([C@H]4C[C@H](c5cccc(N6CCOCC6)n5)C4)ccn3)cc21 [Compound 79] | 500 to 1000 nM | 74% | 96% | 0.1 to 0.5 µM
COc1ncccc1-c1ccc2nnc(CNC(=O)c3ccc4c(c3)[C@](C)(C#N)COC4)cc2c1 [Compound 357] | 100 to 500 nM | 87% | 97% | < 0.1 µM
CC(=O)N1CCOc2ccc(-c3ccc4cnc(CNC(=O)c5ccc6c(c5)[C@](C)(C#N)COC6)cc4n3)cc21 [Compound 475] | 100 to 500 nM | 98% | 99% | < 0.1 µM
C[C@@]1(C#N)COCc2ncc(C(=O)NCc3cc4cc(-c5cncc(C6CC6)n5)ccc4cn3)cc21 [Compound 181] | 100 to 500 nM | 97% | 100% | < 0.1 µM
C[C@@]1(C#N)COCc2ccc(C(=O)NCc3cc(OCC4CCOCC4)ccn3)cc21 [Compound 61] | > 1000 nM | 25% | 85% | 0.1 to 0.5 µM
C[C@@]1(C#N)COCc2ccc(C(=O)NCc3cc(/C=C/c4ccccc4)ccn3)cc21 [Compound 4] | > 1000 nM | 74% | 97% | 0.1 to 0.5 µM
O=C(NCc1cc2nc(-c3cncc(C4CC4)n3)ccc2cn1)c1cnc2c(c1)[C@@](F)(C(F)F)CCO2 [Compound 243] | > 1000 nM | 9% | 81% | 0.1 to 0.5 µM
COc1cc(F)cc2c1CCN(c1ccnc(CNC(=O)c3ccc4c(c3)[C@](C)(C#N)COC4)c1)C2 [Compound 51] | 100 to 500 nM | 94% | 99% | < 0.1 µM
C[C@@]1(C#N)COCc2ccc(C(=O)NCc3cc4nc(-c5cccc(C6(C(F)F)COC6)c5)ccc4cn3)cc21 [Compound 194] | 500 to 1000 nM | 60% | 93% | 0.1 to 0.5 µM
C[C@@]1(C#N)COCc2ccc(C(=O)NCc3cc(N4CCN(c5ccccc5)CC4)ccn3)cc21 [Compound 42] | 500 to 1000 nM | 84% | 97% | 0.1 to 0.5 µM
CN1C(=O)Cc2ccc(-c3ccc4cnc(CNC(=O)c5ccc6c(c5)[C@](C)(C#N)COC6)cc4n3)cc21 [Compound 476] | 500 to 1000 nM | 63% | 94% | 0.1 to 0.5 µM
COc1c(F)cccc1-c1ccc2cnc(CNC(=O)c3ccc4c(c3)[C@](C)(C#N)COC4)cc2n1 [Compound 516] | 500 to 1000 nM | 77% | 96% | 0.1 to 0.5 µM
C[C@@]1(C#N)COCc2ccc(C(=O)NCc3cc4nn(-c5ccccc5)cc4cn3)cc21 [Compound 524] | > 1000 nM | 50% | 95% | 0.1 to 0.5 µM
C[C@@]1(C#N)COCc2ccc(C(=O)NCc3cc4c(cn3)CCN(c3cncc(N5CCOCC5)n3)C4)cc21 [Compound 314] | 100 to 500 nM | 83% | 96% | < 0.1 µM
COCCC(=O)N1CCN(c2cccc(-c3ccc4cnc(CNC(=O)c5ccc6c(c5)[C@](C)(C#N)COC6)cc4n3)n2)CC1 [Compound 288] | 100 to 500 nM | 98% | 101% | < 0.1 µM
COc1ccccc1N1CCc2cnc(CNC(=O)c3ccc4c(c3)[C@](C)(C#N)COC4)cc2C1 [Compound 250] | > 1000 nM | 25% | 87% | 0.1 to 0.5 µM

Results, then the molecule that gave them:

IC50 (BRG-1) | Emax (BRG-1) | BRM Max % Inhibition (BRM) | IC50 (BRM) | Compound
< 100 nM | 96% | 99% | < 0.1 µM | C[C@@]1(F)COCc2ccc(C(=O)NCc3cc4nc(-c5ccnc(N6CC[C@@H]7COC[C@H]7C6)n5)ccc4cn3)cc21 [Compound 308]
100 to 500 nM | 82% | 99% | < 0.1 µM | C[C@@]1(C#N)COCc2ccc(C(=O)NCc3cc4c(cn3)CCN(c3cncc(N5CCC5)n3)C4)cc21 [Compound 298]
100 to 500 nM | 93% | 100% | < 0.1 µM | C[C@@]1(C#N)COCc2ccc(C(=O)NCc3cc4nc(-c5cncc(N6CCOCC6)n5)ccc4cn3)cc21 [Compound 435]
> 1000 nM | 39% | 89% | 0.1 to 0.5 µM | CN1CC(c2cccc(-c3ccc4cnc(CNC(=O)c5ccc6c(c5)[C@](C)(C#N)COC6)cc4n3)n2)C1 [Compound 359]
100 to 500 nM | 92% | 104% | < 0.1 µM | C[C@@]1(F)COCc2ccc(C(=O)NCc3cc4nc(-c5cncc(N6CCOCC6)n5)ccc4cn3)cc21 [Compound 319]
500 to 1000 nM | 80% | 97% | < 0.1 µM | COc1cc(-c2ccc3cnc(CNC(=O)c4ccc5c(c4)[C@](C)(C#N)COC5)cc3n2)ccn1 [Compound 512]
500 to 1000 nM | 76% | 97% | 0.1 to 0.5 µM | COc1ccncc1-c1ccc2cnc(CNC(=O)c3ccc4c(c3)[C@](C)(C#N)COC4)cc2n1 [Compound 489]
> 1000 nM | 99% | 99% | < 0.1 µM | CN(C)c1cccc(-c2ccc3cnc(CNC(=O)c4ccc5c(c4)[C@](C)(C#N)COC5)cc3n2)n1 [Compound 360]
< 100 nM | 92% | 100% | < 0.1 µM | C[C@@]1(C#N)COCc2ccc(C(=O)NCc3cc4nc(-c5cccc(N6CCC6)n5)ccc4cn3)cc21 [Compound 496]
> 1000 nM | 42% | 86% | 0.5 to 1 µM | C[C@@]1(C#N)COCc2ccc(C(=O)NCc3cc4nc(-c5cccnc5)ccc4cn3)cc21 [Compound 114]
100 to 500 nM | 92% | 98% | < 0.1 µM | C[C@@]1(C#N)COCc2ccc(C(=O)NCc3cc4nc(-c5ccnc(N6CC7CC6C7)n5)ccc4cn3)cc21 [Compound 285]
500 to 1000 nM | 56% | 97% | 0.1 to 0.5 µM | COc1nn(C)cc1-c1cnc2cnc(CNC(=O)c3ccc4c(c3)[C@](C)(F)COC4)cc2c1 [Compound 338]
< 100 nM | 97% | 104% | < 0.1 µM | C[C@@]1(C#N)COCc2ccc(C(=O)NCc3cc4cc(-c5cncc(N6CCC6)n5)ccc4cn3)cc21 [Compound 371]
100 to 500 nM | 89% | 98% | < 0.1 µM | C[C@@]1(F)COCc2ccc(C(=O)NCc3cc4nc(-c5ccnc(N6CCC6)n5)cnc4cn3)cc21 [Compound 190]
> 1000 nM | 47% | 93% | 0.1 to 0.5 µM | C[C@@]1(C#N)COCc2ccc(C(=O)NCc3cc4cc(-c5nccc(N6CCC6)n5)cnc4cn3)cc21 [Compound 372]
500 to 1000 nM | 82% | 98% | < 0.1 µM | C[C@@]1(C#N)COCc2ccc(C(=O)NCc3cc4nc(-c5ccccc5)cnc4cn3)cc21 [Compound 463]

Source: patent US12441726B2, “Compounds and uses thereof” (Foghorn Therapeutics Inc., priority 2020, dated 2025)
